Source: US20250170248A1, “SMARCA DEGRADERS AND USES THEREOF” (Kymera Therapeutics, Inc., priority 2021, published 2025)

Columns and labels:
Type in all cases: cell-based
[1] = target: T1, SMARCA2 (Homo sapiens, UniProt P51531); test: MSD SMARCA2 degradation in A549 cell line; settings: for Dmax: A549, A549 cells; for Dmax / DC50: 24 h; for DC50 / SMARCA2 MSD A549 degradation 24 h: Average Dmax %: A549 cells; for DC50: read-out: SMARCA2 MSD A549 degradation 24 h: Average external-Abs DC50
Procedure, shortened: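 SMARCA2 protein remaining after 24 h exposure of A549 cells (top concentration 1000 nM, 3-fold dilutions) was measured by MSD electrochemiluminescence immunoassay of cell lysates. Results are given as binned DC50 and maximal degradation (Dmax) codes.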

[2] = target: T2, SMARCA4 (Homo sapiens, UniProt P51532); test: SMARCA4 Western blot degradation in MV4-11 cells; settings: for Dmax: MV4-11, MV4-11 cells, read-out: SMARCA4 MSD MV411 degradation 24 h: average Dmax %; for Dmax / DC50: 24 h; for DC50 / SMARCA4 MSD MV411 degradation 24 h: average Dmax %: MV4-11 cells; for DC50: read-out: SMARCA4 MSD MV411 degradation 24 h: Mean external-Abs DC50
T2 construct: SMARCA2/SMARCA4 protein degradation selectivity in MV4-11 cells; endogenous in cells; host or cells: MV4-11
T2 sequence (P51532 whole entry): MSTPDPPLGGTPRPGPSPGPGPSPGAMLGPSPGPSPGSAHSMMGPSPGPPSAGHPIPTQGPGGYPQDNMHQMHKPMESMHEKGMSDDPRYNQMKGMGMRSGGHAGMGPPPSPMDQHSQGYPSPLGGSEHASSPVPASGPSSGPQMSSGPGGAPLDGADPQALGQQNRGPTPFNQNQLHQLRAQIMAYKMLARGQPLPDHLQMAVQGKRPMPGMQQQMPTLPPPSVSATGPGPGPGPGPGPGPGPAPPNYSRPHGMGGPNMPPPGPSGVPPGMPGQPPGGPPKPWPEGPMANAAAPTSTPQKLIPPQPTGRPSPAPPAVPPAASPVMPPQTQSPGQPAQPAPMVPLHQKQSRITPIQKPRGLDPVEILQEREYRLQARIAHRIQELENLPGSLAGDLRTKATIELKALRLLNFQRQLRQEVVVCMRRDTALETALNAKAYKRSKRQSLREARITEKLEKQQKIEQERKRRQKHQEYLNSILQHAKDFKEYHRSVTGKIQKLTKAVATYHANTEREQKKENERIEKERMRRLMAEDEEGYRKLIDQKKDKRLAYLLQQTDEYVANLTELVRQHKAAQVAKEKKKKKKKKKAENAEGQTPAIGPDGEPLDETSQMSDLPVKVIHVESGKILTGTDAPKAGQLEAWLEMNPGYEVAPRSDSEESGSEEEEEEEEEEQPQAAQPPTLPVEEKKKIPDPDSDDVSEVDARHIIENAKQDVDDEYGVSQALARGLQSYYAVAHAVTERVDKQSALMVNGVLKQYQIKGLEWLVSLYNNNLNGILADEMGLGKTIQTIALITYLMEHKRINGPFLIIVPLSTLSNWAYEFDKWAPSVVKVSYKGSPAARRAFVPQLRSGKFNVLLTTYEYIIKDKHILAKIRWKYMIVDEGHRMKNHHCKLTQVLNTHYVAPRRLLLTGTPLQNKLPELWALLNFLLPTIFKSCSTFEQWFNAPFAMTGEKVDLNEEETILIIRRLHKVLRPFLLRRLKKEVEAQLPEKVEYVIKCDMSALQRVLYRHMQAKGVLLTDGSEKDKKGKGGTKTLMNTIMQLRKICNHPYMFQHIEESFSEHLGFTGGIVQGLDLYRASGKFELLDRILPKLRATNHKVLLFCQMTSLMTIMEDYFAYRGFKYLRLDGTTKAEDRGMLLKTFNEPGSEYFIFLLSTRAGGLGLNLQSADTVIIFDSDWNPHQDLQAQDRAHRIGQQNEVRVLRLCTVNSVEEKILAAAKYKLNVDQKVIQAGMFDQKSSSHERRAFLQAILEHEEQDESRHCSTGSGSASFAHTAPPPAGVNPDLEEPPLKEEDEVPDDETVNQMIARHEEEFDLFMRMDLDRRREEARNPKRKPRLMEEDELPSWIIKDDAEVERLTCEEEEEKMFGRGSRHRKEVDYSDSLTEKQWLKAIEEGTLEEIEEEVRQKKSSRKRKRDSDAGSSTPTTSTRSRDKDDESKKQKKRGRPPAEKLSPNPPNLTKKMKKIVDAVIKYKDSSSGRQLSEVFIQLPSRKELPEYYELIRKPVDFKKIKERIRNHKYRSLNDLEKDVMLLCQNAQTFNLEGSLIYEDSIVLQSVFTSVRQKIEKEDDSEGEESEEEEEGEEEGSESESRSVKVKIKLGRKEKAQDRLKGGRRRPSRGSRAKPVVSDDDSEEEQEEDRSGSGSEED
Procedure, shortened: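 Protein levels quantified by LI-COR Western blot (beta-actin loading control) in RIPA lysates of MV4-11 cells after 24 h compound exposure. Degradation reported as DC50, Dmax % at 24 h and SMARCA2 vs SMARCA4 selectivity, each binned into letter codes.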

[3] = target: T1, SMARCA2; test: SMARCA2 Western blot degradation in MV4-11 cells; design: SMARCA2/SMARCA4 protein degradation selectivity in MV4-11 cells; endogenous in cells; host or cells: MV4-11; settings: for Dmax: MV4-11, MV4-11 cells, read-out: SMARCA2 MSD MV411 degradation 24 h: average Dmax %; for Dmax / DC50 / SMARCA2 MSD MV411 degradation 24 h: average Dmax %: 24 h; for DC50 / Selectivity in MV411 / SMARCA2 MSD MV411 degradation 24 h: average Dmax %: MV4-11 cells; for DC50: read-out: SMARCA2 MSD MV411 degradation 24 h: Mean external-Abs DC50; for Selectivity in MV411: SMARCA2/4 selectivity

T1 sequence (P51531 whole entry): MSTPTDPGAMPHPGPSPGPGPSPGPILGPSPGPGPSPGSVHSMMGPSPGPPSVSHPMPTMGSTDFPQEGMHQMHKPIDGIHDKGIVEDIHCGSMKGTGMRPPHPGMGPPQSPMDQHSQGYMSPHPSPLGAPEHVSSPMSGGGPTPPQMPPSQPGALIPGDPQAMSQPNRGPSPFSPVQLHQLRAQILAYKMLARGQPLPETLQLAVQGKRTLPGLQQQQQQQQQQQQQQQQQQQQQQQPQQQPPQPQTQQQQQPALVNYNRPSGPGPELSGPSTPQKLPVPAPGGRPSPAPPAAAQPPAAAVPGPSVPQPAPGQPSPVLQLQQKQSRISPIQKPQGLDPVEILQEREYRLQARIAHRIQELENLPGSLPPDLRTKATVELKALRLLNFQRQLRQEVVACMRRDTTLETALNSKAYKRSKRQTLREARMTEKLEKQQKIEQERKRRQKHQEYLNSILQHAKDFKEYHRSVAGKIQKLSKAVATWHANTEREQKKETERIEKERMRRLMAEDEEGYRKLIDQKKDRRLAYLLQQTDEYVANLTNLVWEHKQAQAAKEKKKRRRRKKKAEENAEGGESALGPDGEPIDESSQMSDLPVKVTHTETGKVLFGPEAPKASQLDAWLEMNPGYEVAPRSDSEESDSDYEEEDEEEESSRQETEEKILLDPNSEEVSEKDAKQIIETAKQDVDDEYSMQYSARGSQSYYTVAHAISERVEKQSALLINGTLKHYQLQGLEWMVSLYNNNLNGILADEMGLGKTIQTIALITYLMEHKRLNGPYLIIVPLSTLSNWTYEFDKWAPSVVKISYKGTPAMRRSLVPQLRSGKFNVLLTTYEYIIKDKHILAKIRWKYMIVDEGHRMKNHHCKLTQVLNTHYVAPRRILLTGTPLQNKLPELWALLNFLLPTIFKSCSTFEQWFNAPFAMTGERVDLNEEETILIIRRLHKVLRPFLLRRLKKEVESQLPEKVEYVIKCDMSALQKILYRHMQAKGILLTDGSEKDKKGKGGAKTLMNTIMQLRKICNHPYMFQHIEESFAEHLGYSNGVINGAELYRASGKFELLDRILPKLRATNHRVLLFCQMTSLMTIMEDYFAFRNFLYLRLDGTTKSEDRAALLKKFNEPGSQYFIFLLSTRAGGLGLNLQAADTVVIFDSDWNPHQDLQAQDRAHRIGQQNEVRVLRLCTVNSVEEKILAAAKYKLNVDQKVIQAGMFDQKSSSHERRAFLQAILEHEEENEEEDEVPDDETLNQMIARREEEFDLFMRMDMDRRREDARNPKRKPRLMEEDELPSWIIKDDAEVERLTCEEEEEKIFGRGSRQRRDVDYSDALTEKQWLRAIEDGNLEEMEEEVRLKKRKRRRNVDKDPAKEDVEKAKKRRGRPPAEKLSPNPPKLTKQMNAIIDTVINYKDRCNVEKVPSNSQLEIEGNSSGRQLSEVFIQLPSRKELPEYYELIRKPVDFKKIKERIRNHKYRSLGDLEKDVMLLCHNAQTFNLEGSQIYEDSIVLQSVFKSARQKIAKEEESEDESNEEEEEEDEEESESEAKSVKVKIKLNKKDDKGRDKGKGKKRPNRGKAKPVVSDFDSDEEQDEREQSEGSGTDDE

SMILES | Dmax [1] [%] | DC50 [1] [µM] | Dmax [2] [%] | DC50 [2] [µM] | Dmax [3] [%] | DC50 [3] [µM] | Selectivity in MV411 [3] | SMARCA2 MSD A549 degradation 24 h: Average Dmax % [1] | SMARCA4 MSD MV411 degradation 24 h: average Dmax % [2] | SMARCA2 MSD MV411 degradation 24 h: average Dmax % [3]
C#Cc1ccc(CNC(=O)[C@@H]2C[C@@H](O)CN2C(=O)[C@@H](NC(=O)N2CC3(CC(N4CCC(c5cnc(N6CCc7[nH]c8nnc(-c9ccccc9O)cc8c7[C@H]6C)nc5)CC4)C3)C2)C(C)(C)C)cc1OC [I-319] | > 90 | 0.01 to 0.05 | 50 to 70 | > 0.1 | 70 to 90 | 0.001 to 0.01 | B (B (>100-500 fold)) | – | – | –
C#Cc1ccc(CNC(=O)[C@@H]2C[C@@H](O)CN2C(=O)[C@@H](NC(=O)[C@H]2CCC3(CC2)C[C@H](N2CCC(c4ccc(N5CCN6c7cc(-c8ccccc8O)nnc7NC[C@H]6C5)nc4)CC2)C3)C(C)(C)C)cc1 (single isomer, unassigned) [I-155] | > 90 | 0.01 to 0.05 | < 50 | > 0.1 | 70 to 90 | 0.001 to 0.01 | A (A (>500 fold)) | – | – | –
C#Cc1ccc([C@H](C)NC(=O)[C@@H]2C[C@@H](O)CN2C(=O)[C@@H](OC(=O)N2CC3(CC(N4CCC(c5cnc(N6CCc7[nH]c8nnc(-c9ccccc9O)cc8c7[C@H]6C)nc5)CC4)C3)C2)C(C)(C)C)cc1 [I-150] | > 90 | 0.01 to 0.05 | 70 to 90 | > 0.1 | 70 to 90 | 0.001 to 0.01 | C (C (10-100 fold)) | – | – | –
C#Cc1ccc(CNC(=O)[C@@H]2C[C@@H](O)CN2C(=O)[C@@H](NC(=O)N2CCN(C[C@H]3CCN(c4cnc(N5CCc6[nH]c7nnc(-c8ccccc8O)cc7c6[C@H]5C)nc4)C3)CC2)C(C)(C)C)cc1 (single isomer, unassigned) [I-162] | > 90 | > 0.1 | 50 to 70 | > 0.1 | 50 to 70 | 0.01 to 0.1 | C (C (10-100 fold)) | – | – | –
Cc1ncsc1-c1ccc(CNC(=O)[C@@H]2C[C@@H](O)CN2C(=O)[C@@H](NC(=O)[C@H]2CC3(C2)C[C@H](N2CCC(c4ccnc(N5CCN6c7cc(-c8ccccc8O)nnc7NC[C@@H]6C5)n4)CC2)C3)C(C)(C)C)cc1 (single isomer, unassigned) [I-4] | – | > 0.1 | – | > 0.1 | – | 0.001 to 0.01 | B (B (>100-500 fold)) | C (C (50-70% degradation)) | D (D (<50% degradation)) | B (B (>70-90% degradation))
C#Cc1ccc(CNC(=O)[C@@H]2C[C@@H](O)CN2C(=O)[C@@H](NC(=O)CN2CCC(N3CC4(CC(N5CCN6c7cc(-c8ccccc8O)nnc7NC[C@H]6C5)C4)C3)CC2)C(C)(C)C)cc1 [I-252, (2S,4R)—N-(4-ethynylbenzyl)-4-hydroxy-1-((S)-2-(2-(4-(6-((S)-2-(2-hydroxyphenyl)-6a,7,9,10-tetrahydro-5H-pyrazino[1′,2′:4,5]pyrazino[2,3-c]pyridazin-8(6H)-yl)-2-azaspiro[3.3]heptan-2-yl)piperidin-1-yl)acetamido)-3,3-dimethylbutanoyl)pyrrolidine-2-carboxamide] | > 90 | 0.05 to 0.1 | > 90 | 0.001 to 0.01 | > 90 | < 0.001 | D (D (<10 fold)) | – | – | –
C#Cc1cc(Cl)c(CNC(=O)[C@@H]2C[C@@H](O)CN2C(=O)[C@@H](NC(=O)[C@H]2CC3(C2)C[C@H](N2CCC(N4CCC(N5CCN6c7cc(-c8ccccc8O)nnc7NC[C@H]6C5)CC4)CC2)C3)C(C)(C)C)c(OC)c1 (some centres unmarked) [I-329] | – | > 0.1 | – | > 0.1 | – | – | D (D (<10 fold)) | – | – | –
C#Cc1ccc(CNC(=O)[C@@H]2C[C@@H](O)CN2C(=O)[C@@H](NC(=O)[C@H]2CC3(C2)C[C@H](N2CCN(C(=O)CN4CCN5c6cc(-c7ccccc7O)nnc6NC[C@H]5C4)CC2)C3)C(C)(C)C)cc1 (single isomer, unassigned) [I-239] | > 90 | > 0.1 | > 90 | 0.01 to 0.1 | > 90 | 0.001 to 0.01 | D (D (<10 fold)) | – | – | –
Cn1nccc1-c1ccc(CNC(=O)[C@@H]2C[C@@H](O)CN2C(=O)[C@@H](NC(=O)[C@H]2CC[C@@H](c3ccc(-c4cnc(N5CCN6c7cc(-c8ccccc8O)nnc7NC[C@H]6C5)nc4)cc3)CC2)C(C)(C)C)cc1 (single isomer, unassigned) [I-88] | > 90 | < 0.01 | > 90 | 0.001 to 0.01 | > 90 | < 0.001 | C (C (10-100 fold)) | – | – | –
Cc1ncsc1-c1ccc(CNC(=O)[C@@H]2C[C@@H](O)CN2C(=O)C(c2cc(OC[C@H]3CC[C@@H](N4CCC(c5cnc(N6CCc7[nH]c8nnc(-c9ccccc9O)cc8c7[C@@H]6C)nc5)CC4)CC3)no2)C(C)C)cc1 (single isomer, unassigned) [I-16] | 70 to 90 | 0.05 to 0.1 | 70 to 90 | 0.01 to 0.1 | > 90 | 0.001 to 0.01 | D (D (<10 fold)) | – | – | –
C#Cc1ccc(CNC(=O)[C@@H]2C[C@@H](O)CN2C(=O)[C@@H](NC(=O)[C@H]2CCC3(CC2)C[C@H](N2CCC(c4cnc(N5CCN6c7cc(-c8ccccc8O)nnc7NC[C@H]6C5)nc4)CC2)C3)C(C)(C)C)c(Cl)c1 (single isomer, unassigned) [I-98] | > 90 | 0.01 to 0.05 | < 50 | > 0.1 | 70 to 90 | 0.001 to 0.01 | A (A (>500 fold)) | – | – | –
C#Cc1ccc(C2(NC(=O)[C@@H]3C[C@@H](O)CN3C(=O)[C@@H](NC(=O)[C@H]3CC4(C3)C[C@H](N3CCC(N5CCC(N6CCN7c8cc(-c9ccccc9O)nnc8NC[C@H]7C6)CC5)CC3)C4)C(C)(C)C)CC2)cc1 (single isomer, unassigned) [I-225] | – | > 0.1 | – | > 0.1 | – | 0.001 to 0.01 | B (B (>100-500 fold)) | A (A (>90% degradation)) | D (D (<50% degradation)) | B (B (>70-90% degradation))
Cc1ncsc1-c1ccc(CNC(=O)[C@@H]2C[C@@H](O)CN2C(=O)[C@@H](NC(=O)C2(F)CC2)C(C)(C)C)c(O[C@H]2CC[C@@H](N3CCC(c4cnc(N5CCc6[nH]c7nnc(-c8ccccc8O)cc7c6[C@@H]5C)nc4)CC3)CC2)c1 (single isomer, unassigned) [I-34] | 70 to 90 | > 0.1 | 50 to 70 | > 0.1 | < 50 | 0.01 to 0.1 | B (B (>100-500 fold)) | – | – | –
C#Cc1ccc(CNC(=O)[C@@H]2C[C@@H](O)CN2C(=O)[C@@H](NC(=O)C2CCC3(CC2)CC(N2CCC(N4CCC[C@@H](C(=O)N5CCN6c7cc(-c8ccccc8O)nnc7NC[C@H]6C5)C4)CC2)C3)C(C)(C)C)cc1 (single isomer, unassigned) [I-91] | > 90 | > 0.1 | < 50 | > 0.1 | 70 to 90 | 0.001 to 0.01 | A (A (>500 fold)) | – | – | –
CC(C)C(C(=O)N1C[C@H](O)C[C@H]1C(=O)N[C@@H](C)C#Cc1ccccc1)c1cc(OCCN2CCC(N3CCC(N4CCC(CN5CCN6c7cc(-c8ccccc8O)nnc7NC[C@H]6C5)CC4)CC3)CC2)no1 (some centres unmarked) [I-283] | 70 to 90 | > 0.1 | < 50 | > 0.1 | < 50 | > 0.1 | D (D (<10 fold)) | – | – | –
